Laboratory results taken from US6670459B2, “Process for the isolation of novel oligospirostanoside” (Zandu Pharmaceutical Works Ltd., priority 2002, dated 2003).
Where two headings read alike, the source gives them in different places. Marks after values point to notes of the source that are not given here.

Tests used:
immunecompromised mice [1] = format: in vivo
Description: (§1) 0 day: sensitization with 0.2 ml of 5×10^9 SRBC/ml i.p.
4th day: challenged with 20 μl of 5×10^9 SRBC/ml into right hind footpad for DTH reaction only.
(§2) SRBC: Sheep red blood cell.
(§3) 5th day: measurement of foot thickness/Haemagglutination antibody titre

immunecompromised mice [2] = format: in vivo; remark: listed apart in the source
Description: as §1, §2, §3

[3] = immunecompromised mice, 0.0006 mg/kg p.o., days 0-4, day 5, n=12
[4] = immunecompromised mice, 0.0125 mg/kg p.o., days 0-4, day 5, n=12
[5] = oral, immunecompromised experimental animals, dose levels 0.0062-0.0125 mg Kg^-1
[6] = mice, 250 mg/kg p.o., day 5, n=12
[7] = immunecompromised mice, 2.5 mg/kg p.o., days 0-4, day 5, n=12

## C[C@H]1CC[C@@]2(OC1)O[C@H]1C[C@H]3[C@@H]4CC[C@@H]5C[C@@H](O[C@@H]6O[C@H](CO)[C@@H](O[C@@H]7O[C@@H](C)[C@H](O)[C@@H](O)[C@H]7O[C@@H]7O[C@@H](C)[C@H](O)[C@@H](O)[C@H]7O)[C@H](O)[C@H]6O)CC[C@]5(C)[C@H]4CC[C@]3(C)[C@H]1[C@@H]2C [AR-Iv, 3-0-[α-L-rhamnopyranosyl-(1→2)-α-L-rhamnopyranosyl-(1→4)-0-β-D-glucopyranosyl]-25(S)-5β-spirostan-3β-ol]
Immunecompromised mice [1]; [3]
  DTH % change compared to control: 78*** %
  DTH mean ± S.E.: 0.80 ± 0.14
Immunecompromised mice [1]; [4]
  DTH % change compared to control: 102*** %
  DTH mean ± S.E.: 0.91 ± 0.42
Immunecompromised mice [1]; [5]
  enhanced cell-mediated immune response: 77.77-102.22%
Immunecompromised mice [2]; [3]
  Antibody titre % change compared to control: 56** %
  Antibody titre mean ± S.E.: 5.60 ± 0.33
Immunecompromised mice [2]; [4]
  Antibody titre % change compared to control: 78*** %
  Antibody titre mean ± S.E.: 6.41 ± 0.16
Immunecompromised mice [2]; [5]
  potentiated antibody synthesis: 55.55-69.44%

## Cyclodextrin [reference compound]
Immunecompromised mice [1]; [6]
  DTH % change compared to control: 23* %
  DTH mean ± S.E.: 0.45 ± 0.24
Immunecompromised mice [2]; [6]
  Antibody titre % change compared to control: 45* %
  Antibody titre mean ± S.E.: 3.60 ± 0.33

## c1ccc([C@H]2CN3CCSC3=N2)cc1 [LEV, Levamisole, reference compound]
Immunecompromised mice [1]; [7]
  DTH % change compared to control: 140*** %
  DTH mean ± S.E.: 1.08 ± 0.14
Immunecompromised mice [2]; [7]
  Antibody titre % change compared to control: 89*** %
  Antibody titre mean ± S.E.: 6.80 ± 0.30
